Assay results: patent publication US20170150719A1, “FUNGICIDAL PYRAZOLES AND THEIR MIXTURES” (E I DU PONT DE NEMOURS AND COMPANY, priority 2010, published 2017)
Marks after values point to notes of the source that are not given here.

Legend:
Septoria tritici = experiment: Test F: wheat leaf blotch, preventive spray on wheat seedlings, visual disease rating; format: in vivo; design: Test F rating (disease control), value marked *: concentration or dose not given beside the values; conditions: for pest or weed control at 200 µg/mL: Zymoseptoria tritici, 100 = 100% disease control, 0 = no disease control relative to the controls
Text: (§1) A hyphen (-) indicates no test results.

[1] = system: Puccinia recondita f. sp. tritici; experiment: Test G: wheat leaf rust, spray after inoculation (curative) on wheat seedlings, visual disease rating; format: in vivo; conditions: sprayed after inoculation, 100 = 100% disease control, 0 = no disease control
Text: as §1

[2] = system: Puccinia recondita f. sp. tritici; experiment: Test H: wheat leaf rust, preventive spray on wheat seedlings, visual disease rating; conditions: read-out: Test H rating (disease control), wheat leaf rust, sprayed the day before inoculation; 100 = 100% disease control, 0 = no disease control
Botrytis cinerea = experiment: Test A: tomato Botrytis, preventive spray on tomato seedlings, visual disease rating; conditions: Botrytis cinerea, in Solanum lycopersicum, read-out: Test A rating (disease control), tomato Botrytis; 100 = 100% disease control, 0 = no disease control relative to the controls
Method: (§2) General protocol for preparing test suspensions for Tests A-I: the test compounds were first dissolved in acetone in an amount equal to 3% of the final volume and then suspended at the desired concentration (in ppm) in acetone and purified water (50/50 mix by volume) containing 250 ppm of the surfactant Trem® 014 (polyhydric alcohol esters). The resulting test suspensions were then used in Tests A-I. Each test was conducted in triplicate, and the results were averaged. Spraying a 200 ppm test suspension to the point of run-off on the test plants was the equivalent of a rate of about 800 g/ha. Unless otherwise indicated, the rating values indicate a 200 ppm test suspension was used. (An asterisk “*” next to the rating value indicates a 40 ppm test suspension was used.)
The test suspension was sprayed to the point of run-off on tomato seedlings. The following day the seedlings were inoculated with a spore suspension of Botrytis cinerea (the causal agent of tomato Botrytis) and incubated in saturated atmosphere at 20° C. for 48 h, and then moved to a growth chamber at 24° C. for 3 additional days, after which time visual disease ratings were made.

Alternaria solani = experiment: Test B: tomato early blight, preventive spray on tomato seedlings, visual disease rating; conditions: Alternaria solani, in Solanum lycopersicum, read-out: Test B rating (disease control)
Method: as §2
The test suspension was sprayed to the point of run-off on tomato seedlings. The following day the seedlings were inoculated with a spore suspension of Alternaria solani (the causal agent of tomato early blight) and incubated in a saturated atmosphere at 27° C. for 48 h, and then moved to a growth chamber at 20° C. for 5 days, after which time visual disease ratings were made.

[3] = system: Blumeria graminis f. sp. tritici; experiment: Test I: wheat powdery mildew, preventive spray on wheat seedlings, visual disease rating; conditions: Blumeria graminis, in Triticum aestivum, read-out: Test I rating (disease control), wheat powdery mildew; 100 = 100% disease control, 0 = no disease control relative to the controls
Method: as §2
The test suspension was sprayed to the point of run-off on wheat seedlings. The following day the seedlings were inoculated with a spore dust of Blumeria graminis f. sp. tritici (also known as Erysiphe graminis f. sp. tritici, the causal agent of wheat powdery mildew) and incubated in a growth chamber at 20° C. for 8 days, after which time visual disease ratings were made.

Septoria nodorum = experiment: Test E: Septoria glume blotch, preventive spray on wheat seedlings, visual disease rating; conditions: Parastagonospora nodorum, in Triticum aestivum, read-out: Test E rating (disease control), Septoria glume blotch; 100 = 100% disease control, 0 = no disease control relative to the controls

Compound	pest or weed control at 200 µg/mL (Septoria tritici)	pest or weed control at 200 µg/mL [1]	pest or weed control at 200 µg/mL [2]	pest or weed control at 200 µg/mL (Botrytis cinerea)	pest or weed control at 200 µg/mL (Alternaria solani)	pest or weed control at 200 µg/mL [3]	pest or weed control at 200 µg/mL (Septoria nodorum)	Test F rating (disease control), value marked * (Septoria tritici; rating marked with asterisk (*), other test condition, not explained in the text shown)
Cc1nn(C)c(Nc2c(F)cc(C#N)cc2F)c1-c1ccc(F)cc1Cl [Compound 25, 4-[[4-(2-chloro-4-fluorophenyl)-1,3-dimethyl-1H-pyrazol-5-yl]amino]-3,5-difluorobenzonitrile]	99%	0%	100%	100%	99%	100%	95%	–
Cc1nn(C)c(Oc2ccc(C#N)cc2F)c1-c1ccc(F)cc1Cl [Compound 33, 4-[[4-(2-chloro-4-fluorophenyl)-1,3-dimethyl-1H-pyrazol-5-yl]oxy]-3-fluorobenzonitrile]	100%	99%	100%	100%	100%	99%	98%	–
Cc1nn(C)c(Oc2ccc(C#N)cc2Cl)c1-c1ccc(F)cc1Cl [Compound 37, 3-chloro-4-[[4-(2-chloro-4-fluorophenyl)-1,3-dimethyl-1H-pyrazol-5-yl]oxy]benzonitrile]	100%	69%	99%	100%	86%	100%	100%	–
Cc1nn(C)c(Nc2c(F)cccc2F)c1-c1ccc(F)cc1Cl [Compound 46, 4-(2-chloro-4-fluorophenyl)-N-(2,6-difluorophenyl)-1,3-dimethyl-1H-pyrazol-5-amine]	100%	0%	99%	100%	100%	100%	87%	–
Cc1nn(C)c(Nc2ccc(F)cc2Cl)c1-c1c(F)cccc1Cl [Compound 58, N-(2-chloro-4-fluorophenyl)-4-(2-chloro-6-fluorophenyl)-1,3-dimethyl-1H-pyrazol-5-amine]	100%	32%	99%	99%	100%	100%	0%	–
Cc1nn(C)c(Oc2c(F)cc(C#N)cc2F)c1-c1ccc(F)cc1Br [Compound 65, 4-[[4-(2-bromo-4-fluorophenyl)-1,3-dimethyl-1H-pyrazol-5-yl]oxy]-3,5-difluorobenzonitrile]	100%	0%	100%	100%	99%	100%	99%	–
Cc1nn(C)c(Nc2ccc(F)cc2Br)c1-c1ccc(F)cc1Cl [Compound 73, N-(2-bromo-4-fluorophenyl)-4-(2-chloro-4-fluorophenyl)-1,3-dimethyl-1H-pyrazol-5-amine]	100%	90%	100%	100%	99%	100%	78%	–
Cc1nn(C)c(Nc2c(F)cc(F)cc2F)c1-c1ccc(F)cc1Br [Compound 74, 4-(2-bromo-4-fluorophenyl)-1,3-dimethyl-N-(2,4,6-trifluorophenyl)-1H-pyrazol-5-amine]	100%	0%	100%	100%	100%	100%	98%	–
Cc1nn(C)c(Oc2ccc(C#N)cc2F)c1-c1ccc(F)cc1Br [Compound 79, 4-[[4-(2-bromo-4-fluorophenyl)-1,3-dimethyl-1H-pyrazol-5-yl]oxy]-3-fluorobenzonitrile]	–	28%	100%	99%	99%	100%	100%	100* %
Cc1nn(C)c(Nc2c(F)cc(F)cc2Cl)c1-c1ccc(F)cc1Br [Compound 84, 4-(2-bromo-4-fluorophenyl)-N-(2-chloro-4,6-difluorophenyl)-1,3-dimethyl-1H-pyrazol-5-amine]	100%	92%	100%	100%	99%	100%	96%	–
Cc1nn(C)c(Nc2c(F)cc(F)cc2Cl)c1-c1c(F)cccc1F [Compound 86, N-(2-chloro-4,6-difluorophenyl)-4-(2,6-difluorophenyl)-1,3-dimethyl-1H-pyrazol-5-amine]	100%	0%	100%	100%	99%	100%	90%	–
Cc1nn(C)c(Nc2c(F)cc(Cl)cc2F)c1-c1ccc(C#N)cc1Cl [Compound 111, 3-chloro-4-[5-[(4-chloro-2,6-difluorophenyl)amino]-1,3-dimethyl-1H-pyrazol-4-yl]benzonitrile]	100%	94%	100%	100%	97%	99%	95%	–
Cc1nn(C)c(Nc2c(F)cc(F)cc2Cl)c1-c1ccc(F)cc1F [Compound 117, N-(2-chloro-4,6-difluorophenyl)-4-(2,4-difluorophenyl)-1,3-dimethyl-1H-pyrazol-5-amine]	100%	91%	100%	100%	100%	100%	97%	–
Cc1nn(C)c(Nc2ccc(F)cc2Br)c1-c1ccc(F)cc1F [Compound 118, N-(2-bromo-4-fluorophenyl)-4-(2,4-difluorophenyl)-1,3-dimethyl-1H-pyrazol-5-amine]	100%	75%	97%	100%	93%	100%	69%	–
Cc1nn(C)c(C(O)c2ccc(F)cc2F)c1-c1ccc(F)cc1Cl (stereo not drawn) [Compound 122, 4-(2-chloro-4-fluorophenyl)-α-(2,4-difluorophenyl)-1,3-dimethyl-1H-pyrazole-5-methanol]	100%	96%	100%	100%	99%	99%	92%	–
Cc1nn(C)c(C(O)c2ccc(F)cc2Cl)c1-c1ccc(F)cc1Cl (stereo not drawn) [Compound 123, α,4-bis(2-chloro-4-fluorophenyl)-1,3-dimethyl-1H-pyrazole-5-methanol]	100%	6%	100%	100%	86%	95%	60%	–
Cc1nn(C)c(Nc2c(F)cc(Cl)cc2F)c1-c1ccc(F)cc1F [Compound 126, N-(4-chloro-2,6-difluorophenyl)-4-(2,4-difluorophenyl)-1,3-dimethyl-1H-pyrazol-5-amine]	100%	0%	99%	100%	86%	100%	87%	–
Cc1nn(C)c(Oc2ccc(C#N)cc2Cl)c1-c1c(F)cccc1F [Compound 127, 3-chloro-4-[[4-(2,6-difluorophenyl)-1,3-dimethyl-1H-pyrazol-5-yl]oxy]benzonitrile]	100%	0%	97%	99%	0%	97%	0%	–
